Our source for the Ki and GI50 values is patent publication US11596639B2, “Substituted indole Mcl-1 inhibitors” (Vanderbilt University, priority 2016, dated 2023).

In one assay the target is Mcl-1 (Homo sapiens (Human), UniProt Q07820). In words: TR-FRET binding assay, FITC-Bak peptide and MBP-tagged Mcl-1. Particulars: read-out: Ki for Inhibition of Mcl-1 by TR-FRET assay. The procedure:
Compounds are diluted in DMSO in a 16-point, semilog serial dilution scheme. […] The plate was mixed and incubated for 3 hours at room temperature. […] TR-FRET signal is plotted and IC50 and Ki values are calculated in the same manner as the fluorescence polarization anisotropy based competition assays.
For orientation: Time-resolved FRET reads energy transfer from a long-lived donor to a nearby acceptor.

Assay [1] has as its system H929 human cancer cell lines. In words: Cellular viability / proliferation (Cell TiterGlo, 72 h). The assay is classed as cell-based. Summed up:
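Cells were seeded at 1,000 cells/well in medium with 10% FBS and dosed 24 h later with a 2-fold serial dilution of compound (top concentration 50 μM, final DMSO <1%).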
For orientation: Cellular ATP, detected with luciferase, serves as a proxy for viable cell number.

Setting [2] is: Homo sapiens, NCI-H929, 72 h, read-out: GI50 on cellular proliferation of H929 human cancer cell lines, H929 cells, 72 h, Cell TiterGlo, 10% FBS.

The structures appear in SMILES notation. Like-named read-outs stand apart in the source and are kept apart here. Some results are limits rather than exact numbers.

Sequence of Mcl-1 (Q07820 172-327): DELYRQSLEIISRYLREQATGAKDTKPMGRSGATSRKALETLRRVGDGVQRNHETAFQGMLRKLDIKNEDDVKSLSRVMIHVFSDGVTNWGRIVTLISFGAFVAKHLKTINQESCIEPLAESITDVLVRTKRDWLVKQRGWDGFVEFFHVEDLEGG

One may read the Ki as the dissociation constant of the complex between target and ligand, obtained from inhibition or displacement. For the compound `COCCn1c(C(=O)O)cc2cc(COC)cc(N3C[C@@H](C)n4c(c(CCCOc5cc(C)c(Cl)c(C)c5)c5ccc(Cl)c(-c6c(C)nn(C)c6C)c54)C3=O)c21` [Example 677, (R)-7-(7-chloro-10-(3-(4-chloro-3,5-dimethylphenoxy)propyl)-4-methyl-1-oxo-6-(1,3,5-trimethyl-1H-pyrazol-4-yl)-3,4-dihydropyrazino[1,2-a]indol-2(1H)-yl)-1-(2-methoxyethyl)-5-(methoxymethyl)-1H-indole-2-carboxylic acid], the Ki at Mcl-1 is less than 0.2 nM. Moreover, in assay [1] (setting [2]), the GI50 is less than 200 nM.

In the case of `COCCOCCn1c(C(=O)O)cc2cc(C)cc(N3C[C@@H](C)n4c(c(CCCOc5cc(C)c(Cl)c(C)c5)c5ccc(Cl)c(-c6c(C)nn(C)c6C)c54)C3=O)c21` [Example 678, (R)-7-(7-chloro-10-(3-(4-chloro-3,5-dimethylphenoxy)propyl)-4-methyl-1-oxo-6-(1,3,5-trimethyl-1H-pyrazol-4-yl)-3,4-dihydropyrazino[1,2-a]indol-2(1H)-yl)-1-(2-(2-methoxyethoxy)ethyl)-5-methyl-1H-indole-2-carboxylic acid], the Ki at Mcl-1 came out at 0.22 nM. In addition, in assay [1] (setting [2]), the GI50 was less than 200 nM.

As to `Cc1cc(OCCCc2c3n(c4c(-c5c(C)nn(C)c5C)c(Cl)ccc24)[C@H](C)CN(c2cn(C)c4ccc(-n5nnnc5C)nc24)C3=O)cc(C)c1Cl` [Example 679, (R)-7-Chloro-10-(3-(4-chloro-3,5-dimethylphenoxy)propyl)-4-methyl-2-(1-methyl-5-(5-methyl-JH-tetrazol-1-yl)-1H-pyrrolo[3,2-b]pyridin-3-yl)-6-(1,3,5-trimethyl-1H-pyrazol-4-yl)-3,4-dihydropyrazino[1,2-a]indol-1(2H)-one], at Mcl-1, the Ki turned out to be 3.1 nM. In addition, the GI50 in assay [1] (H929 cells, 72 h, Cell TiterGlo, 10% FBS, read-out: GI50 on cellular proliferation of H929 human cancer cell lines) is 940 nM.

For `CCN(C)c1cc(N2C[C@@H](C)n3c(c(CCCOc4cc(C)c(Cl)c(C)c4)c4ccc(Cl)c(-c5c(C)nn(C)c5C)c43)C2=O)c2c(c1)cc(C(=O)O)n2C` [Example 680, (R)-7-(7-chloro-10-(3-(4-chloro-3,5-dimethylphenoxy)propyl)-4-methyl-1-oxo-6-(1,3,5-trimethyl-1H-pyrazol-4-yl)-3,4-dihydropyrazino[1,2-a]indol-2(1H)-yl)-5-(ethyl(methyl)amino)-1-methyl-1H-indole-2-carboxylic acid], at Mcl-1, the Ki amounted to 0.33 nM. Further, the GI50 in assay [1] (setting [2]) is 610 nM.

In the case of `Cc1cc(OCCCc2c3n(c4c(-c5c(C)nn(C)c5C)c(Cl)ccc24)[C@H](C)CN(c2cn(C)c4ccc(-n5cncn5)cc24)C3=O)cc(C)c1Cl` [Example 681, (R)-7-Chloro-10-(3-(4-chloro-3,5-dimethylphenoxy)propyl)-4-methyl-2-(1-methyl-5-(1H-1,2,4-triazol-1-yl)-1H-indol-3-yl)-6-(1,3,5-trimethyl-1H-pyrazol-4-yl)-3,4-dihydropyrazino[1,2-a]indol-1(2H)-one], the Ki at Mcl-1 was determined as 5.5 nM. The GI50 in assay [1] (setting [2]) came to 940 nM.

As for `COCCN(C)c1cc(N2C[C@@H](C)n3c(c(CCCOc4cc(C)c(Cl)c(C)c4)c4ccc(Cl)c(-c5c(C)nn(C)c5C)c43)C2=O)c2c(c1)cc(C(=O)O)n2C` [Example 682, (R)-7-(7-chloro-10-(3-(4-chloro-3,5-dimethylphenoxy)propyl)-4-methyl-1-oxo-6-(1,3,5-trimethyl-1H-pyrazol-4-yl)-3,4-dihydropyrazino[1,2-a]indol-2(1H)-yl)-5-((2-methoxyethyl)(methyl)amino)-1-methyl-1H-indole-2-carboxylic acid], on Mcl-1, the inhibition constant (Ki) is less than 0.2 nM. The GI50 in assay [1] (setting [2]) turned out to be 340 nM.

With `Cc1cc(OCCCc2c3n(c4c(-c5c(C)nn(C)c5C)c(Cl)ccc24)[C@H](C)CN(c2cc(N(C)C)cc4cc(C(=O)O)n(C)c24)C3=O)cc(C)c1Cl` [Example 683, (R)-7-(7-chloro-10-(3-(4-chloro-3,5-dimethylphenoxy)propyl)-4-methyl-1-oxo-6-(1,3,5-trimethyl-1H-pyrazol-4-yl)-3,4-dihydropyrazino[1,2-a]indol-2(1H)-yl)-5-(dimethylamino)-1-methyl-1H-indole-2-carboxylic acid], the Ki at Mcl-1 was 0.21 nM. Moreover, the GI50 in assay [1] (setting [2]) is 250 nM.

For the compound `Cc1nnn(-c2ccc3c(n2)c(N2C[C@@H](C)n4c(c(CCCOc5cc(C)c(Cl)c(C)c5)c5ccc(Cl)c(-c6c(C)nn(C)c6C)c54)C2=O)cn3C)n1` [Example 684, (R)-7-Chloro-10-(3-(4-chloro-3,5-dimethylphenoxy)propyl)-4-methyl-2-(1-methyl-5-(5-methyl-2H-tetrazol-2-yl)-1H-pyrrolo[3,2-b]pyridin-3-yl)-6-(1,3,5-trimethyl-1H-pyrazol-4-yl)-3,4-dihydropyrazino[1,2-a]indol-1(2H)-one], the Ki on Mcl-1 was 0.6 nM. The GI50 in assay [1] (setting [2]) came to 520 nM.

For `Cc1cc(N2C[C@@H](C)n3c(c(CCCOc4cc(C)c(Cl)c(C)c4)c4ccc(Cl)c(-c5c(C)nn(C)c5C)c43)C2=O)c2c(c1)cc1n2CCOC1=O` [Example 685, (R)-6-(7-chloro-10-(3-(4-chloro-3,5-dimethylphenoxy)propyl)-4-methyl-1-oxo-6-(1,3,5-trimethyl-1H-pyrazol-4-yl)-3,4-dihydropyrazino[1,2-a]indol-2(1H)-yl)-8-methyl-3,4-dihydro-1H-[1,4]oxazino[4,3-a]indol-1-one], at Mcl-1, the Ki was 3.2 nM. Also, the GI50 in assay [1] (setting [2]) is 1400 nM.

As for `COCCCn1c(C(=O)O)cc2cc(C)cc(N3C[C@@H](C)n4c(c(CCCOc5cc(C)c(Cl)c(C)c5)c5ccc(Cl)c(-c6c(C)nn(C)c6C)c54)C3=O)c21` [Example 686, (R)-7-(7-chloro-10-(3-(4-chloro-3,5-dimethylphenoxy)propyl)-4-methyl-1-oxo-6-(1,3,5-trimethyl-1H-pyrazol-4-yl)-3,4-dihydropyrazino[1,2-a]indol-2(1H)-yl)-1-(3-methoxypropyl)-5-methyl-1H-indole-2-carboxylic acid], on Mcl-1, the Ki is less than 0.2 nM. Moreover, the GI50 in assay [1] (setting [2]) came out at 520 nM.

As to `Cc1cc(OCCCc2c3n(c4c(-c5c(C)nn(C)c5C)c(Cl)ccc24)[C@H](C)CN(c2cn(C)c4ccc(-c5nn[nH]n5)nc24)C3=O)cc(C)c1Cl` [Example 687, (R)-7-chloro-10-(3-(4-chloro-3,5-dimethylphenoxy)propyl)-4-methyl-2-(1-methyl-5-(2H-tetrazol-5-yl)-1H-pyrrolo[3,2-b]pyridin-3-yl)-6-(1,3,5-trimethyl-1H-pyrazol-4-yl)-3,4-dihydropyrazino[1,2-a]indol-1(2H)-one], the Ki on Mcl-1 was less than 0.2 nM. For the same compound, the GI50 in assay [1] (setting [2]) came out at 330 nM.

Regarding `Cc1cc(OCCCc2c3n(c4c(-c5c(C)nn(C)c5C)c(Cl)ccc24)[C@H](C)CN(c2cc(COCc4cscn4)cc4cc(C(=O)O)n(C)c24)C3=O)cc(C)c1Cl` [Example 688, (R)-7-(7-chloro-10-(3-(4-chloro-3,5-dimethylphenoxy)propyl)-4-methyl-1-oxo-6-(1,3,5-trimethyl-1H-pyrazol-4-yl)-3,4-dihydropyrazino[1,2-a]indol-2(1H)-yl)-1-methyl-5-((thiazol-4-ylmethoxy)methyl)-1H-indole-2-carboxylic acid], the Ki on Mcl-1 is 0.22 nM. In assay [1] (setting [2]), the GI50 stood at 430 nM.

Regarding `Cc1cc(OCCCc2c3n(c4c(-c5c(C)nn(C)c5C)c(Cl)ccc24)[C@H](C)CN(c2cn(C)c4ccc(-n5ncnn5)cc24)C3=O)cc(C)c1Cl` [Example 689, (R)-7-Chloro-10-(3-(4-chloro-3,5-dimethylphenoxy)propyl)-4-methyl-2-(1-methyl-5-(2H-tetrazol-2-yl)-1H-indol-3-yl)-6-(1,3,5-trimethyl-1H-pyrazol-4-yl)-3,4-dihydropyrazino[1,2-a]indol-1(2H)-one], at Mcl-1, the Ki came out at 2.1 nM. In addition, the GI50 in assay [1] (setting [2]) turned out to be 1700 nM.

`Cc1cc(OCCCc2c3n(c4c(-c5c(C)nn(C)c5C)c(Cl)ccc24)[C@H](C)CN(c2cn(C[C@@H]4CCCN4C)c4ccc(C(=O)O)cc24)C3=O)cc(C)c1Cl` [Example 690, 3-((R)-7-chloro-10-(3-(4-chloro-3,5-dimethylphenoxy)propyl)-4-methyl-1-oxo-6-(1,3,5-trimethyl-1H-pyrazol-4-yl)-3,4-dihydropyrazino[1,2-a]indol-2(1H)-yl)-1-(((S)-1-methylpyrrolidin-2-yl)methyl)-1H-indole-5-carboxylic acid]: the Ki at Mcl-1 is 0.26 nM. Besides, the GI50 in assay [1] (setting [2]) turned out to be 330 nM.

For the compound `COCc1cc(N2C[C@@H](C)n3c(c(CCCOc4cc(C)c(Cl)c(C)c4)c4ccc(Cl)c(-c5c(C)nn(C)c5C)c43)C2=O)c2c(c1)cc(C(=O)O)n2Cc1ccccn1` [Example 691, (R)-7-(7-chloro-10-(3-(4-chloro-3,5-dimethylphenoxy)propyl)-4-methyl-1-oxo-6-(1,3,5-trimethyl-1H-pyrazol-4-yl)-3,4-dihydropyrazino[1,2-a]indol-2(1H)-yl)-5-(methoxymethyl)-1-(pyridin-2-ylmethyl)-1H-indole-2-carboxylic acid], at Mcl-1, the Ki was less than 0.2 nM. Moreover, the GI50 in assay [1] (setting [2]) is less than 200 nM.

With `Cc1cc(OCCCc2c3n(c4c(-c5c(C)nn(C)c5C)c(Cl)ccc24)[C@H](C)CN(c2cc(COCC4COC4)cc4cc(C(=O)O)n(C)c24)C3=O)cc(C)c1Cl` [Example 692, (R)-7-(7-chloro-10-(3-(4-chloro-3,5-dimethylphenoxy)propyl)-4-methyl-1-oxo-6-(1,3,5-trimethyl-1H-pyrazol-4-yl)-3,4-dihydropyrazino[1,2-a]indol-2(1H)-yl)-1-methyl-5-((oxetan-3-ylmethoxy)methyl)-1H-indole-2-carboxylic acid], on Mcl-1, the Ki was less than 0.2 nM. In addition, the GI50 in assay [1] (setting [2]) came out at 390 nM.
